According to patent publication US5986131A, “RXR selective ligands” (Hoffmann-La Roche Inc., priority 1997, dated 1999):
Entries after “also recorded” stand apart in the source; their conditions may differ.

What was measured:
[1] = tested on: human sebaceous cells; assay: Antiproliferative activity on human sebocytes in vitro; assay type: cell-based
Experimental: Sebaceous cells were isolated from adult human sebaceous glands by a combination of enzymatic and mechanical methods (Doran et al., 1991). The cells were cultured in Iscove's medium containing 10% fetal calf serum and 4 μg/ml dexamethasone on a layer of growth-arrested 3T3 mouse fibroblasts. Cells were plated in medium without the test compound and then given test compound in fresh medium 24-48 hours after the initial plating. The cultures were given fresh medium, containing the test compound, every 48 hours. On the day of harvesting, the cultures were rinsed with 0.03% EDTA in PBS, to remove only the 3T3 fibroblasts. followed by incubation in 0.05% trypsin/0.03% EDTA. The cells were suspended, mixed vigorously to prepare a single cell suspension and counted in a hemocytometer.
Stock solutions of compounds were made up as 10^-2 M solutions in 100% DMSO and stored at -20° C. in the dark. Compounds in solution were brought to room temperature and used by diluting directly into complete medium to the appropriate concentration.
The compounds of Example 12, Example 2, and Example 4 were tested for their effects on inhibiting the proliferation of first passage human sebaceous cells in vitro after 10 days of exposure to drug.

[2] = tested on: Hamster Ear Sebaceous Gland; assay: Effect on size of sebaceous glands of Golden Syrian hamsters; assay type: in vivo; parameters: Sebaceous Gland Size: unit not given here; conditions: 4 weeks topical dosing
Experimental: Charles River Golden Syrian male hamsters were given the desired dose in acetone. The compounds were stored at 4° C. protected from light. Fresh solutions were made up weekly.
Hamsters were dosed daily for five days, rested for two days, and dosed again for five days until 20 doses were given. The volume of solution was 50 microliters per ear.
Hamsters were sacrificed by CO2 inhalation, and the ears removed for histological evaluation. One ear was removed and the ventral surface separated from the rest of the ear. A 2 mm punch was removed 5 mm from the tip of the ear and stained in 0.1 % Sudan Black B dissolved in 100% propylene glycol overnight. After destaining, the size of sebaceous glands was quantified with a Donsanto Image Analysis System.
Data are given as the average area of 80-120 sebaceous glands per dose, as percent of the control (solvent-treated) sections.

[3] = target: T1, RARα (Homo sapiens, UniProt P10276); assay: RARα binding; conditions: Table 2; read-out: RARα binding IC50
T1 sequence (P10276 1-462): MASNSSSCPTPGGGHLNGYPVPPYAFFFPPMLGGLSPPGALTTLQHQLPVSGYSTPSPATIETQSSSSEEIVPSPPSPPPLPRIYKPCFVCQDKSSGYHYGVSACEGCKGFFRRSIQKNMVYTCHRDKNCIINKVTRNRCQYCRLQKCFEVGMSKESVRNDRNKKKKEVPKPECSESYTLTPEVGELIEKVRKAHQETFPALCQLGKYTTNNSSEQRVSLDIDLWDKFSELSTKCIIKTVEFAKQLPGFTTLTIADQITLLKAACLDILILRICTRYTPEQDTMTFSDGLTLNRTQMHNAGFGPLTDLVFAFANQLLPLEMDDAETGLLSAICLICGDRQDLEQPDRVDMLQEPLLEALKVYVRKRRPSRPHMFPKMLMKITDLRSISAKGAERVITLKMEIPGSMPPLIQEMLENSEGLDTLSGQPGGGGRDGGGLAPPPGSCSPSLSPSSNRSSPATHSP
From the text: Methods essentially as described in those publications were used to determine the binding and transactivation properties of retinoids reported in the Examples herein.

## CC1=C(/C=C/C2=C(/C=C/C(C)=C/C(=O)O)CCCC2)C(C)(C)CCC1 [Example 4, (2E,4E)-3-Methyl-5-(2-((E)-2(2,6,6-trimethyl-1-cyclohexen-1-yl)ethenyl)-1-cyclohexen-1-yl)-2,4-pentadienoic acid]
[1]
  inhibition of sebocyte proliferation (in words): poor dose response curve; also recorded: much weaker than 13-cis-retinoic acid
[1]; Homo sapiens, 240 h, first passage cells, 10 days of exposure, read-out: Inhibition of human sebaceous cell proliferation in vitro IC50
  IC50: > 1 µM
[2]; 1 μg/day
  Sebaceous Gland Size: 13237 ± 1491
[2]; 1 μg/day, ns = not statistically significant
  Sebaceous gland size % Change from Control: -20%
[2]; 10 μg/day
  Sebaceous Gland Size: 17046 ± 4667
[2]; 10 μg/day, ns = not statistically significant
  Sebaceous gland size % Change from Control: +3%
[2]; 100 μg/day
  Sebaceous Gland Size: 13043 ± 1577
  Sebaceous gland size % Change from Control: -21%
[3]
  IC50: > 10 µM
